# In patent US20240374631A1, “A COMPOSITION FOR IMPROVING GUT MICROBIOTA, BEHAVIOURAL PATTERN, ALPHA-SYNUCLEIN LEVELS, SLEEP PATTERN AND/OR SERUM MELATONIN” (GN Corporation Co Ltd, priority 2021, published 2024):
# Tested on: gut microbiota
# Test: Gut microbiome analysis (16S rRNA sequencing of fecal samples) in STAM model of NASH
# Format: in vivo, C57BL/6J mice
# Conditions: post-intervention
# From the text: The study is reported in accordance with Animal Research: Reporting of In Vivo Experiments (ARRIVE) guidelines. C57BL/6J mice were obtained from Japan SLC, Inc. (Japan). All animals used in this study were cared for under the following guidelines: Act on Welfare and Management of Animals (Ministry of the Environment, Japan, Act No. 105 of Oct. 1, 1973), standards relating to the care and management of laboratory animals and relief of pain (Notice No. 88 of the Ministry of the Environment, Japan, Apr. 28, 2006) and the guidelines for proper conduct of animal experiments (Science Council of Japan, Jun. 1, 2006). Protocol approvals were obtained from SMC Laboratories, Japan's IACUC (Study reference no: […] Mice were maintained in a specific pathogen-free (SPF) facility under controlled conditions of temperature (23±3° C.), humidity (50±20%), lighting (12-hour artificial light and dark cycles; light from 8:00 to 20:00) and air exchange. The STAM model of NASH was induced as previously described [D10]. Mice were given a single subcutaneous injection of 200 μg streptozotocin (STZ, Sigma-Aldrich, USA) solution 2 days after birth and fed with a high-fat diet (HFD, 57 kcal % fat, Cat #HFD32, CLEA Japan, Inc., Japan) from 4-9 weeks of age. All mice develop liver steatosis and diabetes and at […] mice had established steatohepatitis, histologically. Studygroups: There were five study groups, described below. Eight mice were included in each study group. Eight NASH mice were orally administered vehicle supplemented with AFO-202 Beta Glucan at a dose of 1 mg/kg in a volume of 5 mL/kg once daily from 6 to 9 weeks of age. Eight NASH mice were orally administered vehicle supplemented with Telmisartan at a dose of 10 mg/kg once daily from 6 to 9 weeks of age. Frequency: Fecal samples were collected at the 6 weeks of age (before administration) and 9 weeks of age (before sacrifice). Procedure: At 6 weeks of age, fecal samples were collected from each mouse by clean catch method. […] A sterile petri dish was placed on the bench. Gently massage the abdomen, position the bottom of mouse over a fresh petri dish, and collect 1-2 fecal pellets. At sacrifice, fecal samples were aseptically collected from cecum. The tubes with feces were placed on ice immediately. These tubes were snap frozen in liquid nitrogen and stored at -80° C. for shipping. In this analysis, the 16S rRNA sequence data acquired by the next-generation sequencer from the fecal […] was used to perform community analysis using the QIIME2 program for microbial community analysis. The raw read data in FASTQ format output from the next-generation sequencer was trimmed to remove adapter sequences and low QV regions that may be included in the data. Cutadapt was used to remove adapter sequences from DNA sequencing reads. Trimmomatic was used as read trimming tool for Illumina NGS data. The adapter sequence was trimmed using the adapter trimming program “cutadapt” if the Trimming of the region at the end of the read sequence overlapped the corresponding sequence by at least one base (mismatch tolerance: 20%). When reads containing N were present in at least one of Read1 and Read2, both Read1 and Read2 were removed. Trimming of low QV regions was performed on the read data after processing using the QV trimming program “Trimmomatic” under the following conditions. The window of 20 bases is slid from the 5' side, and the area where the average QV is less than 20 is trimmed. After trimming, only the reads with more than 50 bases remaining in both Read1 and Read2 were taken as output. The microbial community analysis based on 16S rRNA sequence was performed on the sequence data trimmed in the previous section using the microbial community analysis program “QIIME2”. The annotation program “sklearn” included in QIIME2 is used to annotate the ASV (OTU) sequences. […]
structure (smiles),measurement,setting,value
CCCc1nc2c(C)cc(-c3nc4ccccc4n3C)cc2n1Cc1ccc(-c2ccccc2C(=O)O)cc1 [Telmisartan],"Abundance: S24-7, —, —",line r298,0
same,"Abundance: Lachnospiraceae, —, —",line r300,60
same,"Abundance: Ruminococcaceae, Oscillospira, —",line r301,30
same,"Abundance: S24-7, —, —",line r302,0
same,"Abundance: —, —, —",line r303,107
same,"Abundance: Ruminococcaceae, Oscillospira, —",line r304,9
same,"Abundance: Bacteroidaceae, Bacteroides, acidifaciens",line r305,0
same,"Abundance: Bacteroidaceae, Bacteroides, acidifaciens",line r306,11
same,"Abundance: Lachnospiraceae, Dorea, —",line r307,8
same,"Abundance: Ruminococcaceae, Other, Other",line r308,11
same,"Abundance: Lachnospiraceae, —, —",line r309,13
same,"Abundance: Lachnospiraceae, —, —",line r310,0
same,"Abundance: S24-7, —, —",line r311,1
same,"Abundance: Lachnospiraceae, Other, Other",line r312,0
same,"Abundance: —, —, —",line r313,0
same,"Abundance: Ruminococcaceae, Oscillospira, —",line r314,9
same,"Abundance: Ruminococcaceae, Oscillospira, —",line r315,0
same,"Abundance: Lachnospiraceae, —, —",line r316,19
same,"Abundance: Erysipelotrichaceae, —, —",line r317,0
same,"Abundance: S24-7, —, —",line r318,0
same,"Abundance: Lachnospiraceae, —, —",line r319,9
same,"Abundance: Ruminococcaceae, Oscillospira, —",line r320,0
same,"Abundance: Lachnospiraceae, —, —",line r321,14
same,"Abundance: Other, Other, Other",line r322,0
same,"Abundance: F16, —, —",line r323,0
same,"Abundance: Christensenellaceae, —, —",line r324,5
same,"Abundance: Lachnospiraceae, Other, Other",line r325,0
same,"Abundance: Ruminococcaceae, Oscillospira, —",line r326,0
same,"Abundance: —, —, —",line r327,0
same,"Abundance: Ruminococcaceae, Other, Other",line r328,0
same,"Abundance: —, —, —",line r329,0
same,"Abundance: Lachnospiraceae, Other, Other",line r330,0
same,"Abundance: Other, Other, Other",line r331,0
same,"Abundance: Enterococcaceae, Vagococcus, —",line r332,26
same,"Abundance: Ruminococcaceae, Ruminococcus, —",line r333,0
same,"Abundance: Erysipelotrichaceae, Coprabacillus, —",line r334,0
same,"Abundance: Other, Other, Other",line r335,0
same,"Abundance: Ruminococcaceae, Oscillospira, —",line r336,9
same,"Abundance: Ruminococcaceae, Oscillospira, —",line r337,0
same,"Abundance: —, —, —",line r338,0
same,"Abundance: Lachnospiraceae, —, —",line r339,0
same,"Abundance: Ruminococcaceae, Oscillospira, —",line r340,31
same,"Abundance: Lachnospiraceae, Coprococcus, —",line r341,0
same,"Abundance: Ruminococcaceae, Other, Other",line r342,5
same,"Abundance: —, —, —",line r343,0
same,"Abundance: Erysipelotrichaceae, —, —",line r344,2
same,"Abundance: Rikenellaceae, —, —",line r345,11
same,"Abundance: —, —, —",line r346,0
same,"Abundance: —, —, —",line r347,40
same,"Abundance: —, —, —",line r348,0
same,"Abundance: Lachnospiraceae, —, —",line r349,0
same,"Abundance: —, —, —",line r350,0
same,"Abundance: Lachnospiraceae, Clostridium, Other",line r351,28
same,"Abundance: Erysipelotrichaceae, —, —",line r352,0
same,"Abundance: Streptococcaceae, Streptococcus, minor",line r353,0
same,"Abundance: Ruminococcaceae, Oscillospira, —",line r354,0
same,"Abundance: —, —, —",line r355,0
same,"Abundance: Lachnospiraceae, Other, Other",line r356,0
same,"Abundance: Other, Other, Other",line r357,0
same,"Abundance: —, —, —",line r358,0
same,"Abundance: —, —, —",line r359,0
same,"Abundance: Lachnospiraceae, —, —",line r362,12
same,"Abundance: Streptococcaceae, Streptococcus, —",line r363,0
same,"Abundance: S24-7, —, —",line r365,0
same,"Abundance: Other, Other, Other",line r367,42
same,"Abundance: [Mogibacteriaceae], —, —",line r368,0
same,"Abundance: Enterobacteriaceae, Enterobacter, Other",line r369,0
same,"Abundance: Erysipelotrichaceae, —, —",line r371,19
same,"Abundance: Aerococcaceae, Aerococcus, —",line r372,39
same,"Abundance: Ruminococcaceae, Oscillospira, —",line r373,0
same,"Abundance: Ruminococcaceae, Oscillospira, —",line r374,12
same,"Abundance: Other, Other, Other",line r375,0
same,"Abundance: Lachnospiraceae, Coprococcus, —",line r377,0
same,"Abundance: Other, Other, Other",line r378,0
same,"Abundance: Family Lachnospiraceae, Genus Other, Species Other",table row r380,0
same,"Abundance: Family Ruminococcaceae, Genus Oscillospira, Species —",table row r381,0
same,"Abundance: Family S24-7, Genus —, Species —",table row r382,0
same,"Abundance: Family Ruminococcaceae, Genus Ruminococcus, Species —",table row r383,0
same,"Abundance: Family Ruminococcaceae, Genus Oscillospira, Species —",table row r384,0
same,"Abundance: Family Ruminococcaceae, Genus Ruminococcus, Species —",table row r389,0
same,"Abundance: Family Lachnospiraceae, Genus —, Species —",table row r390,0
same,"Abundance: Family Ruminococcaceae, Genus Oscillospira, Species —",table row r391,0
same,"Abundance: Family Corynebacteriaceae, Genus Corynebacterium, Species stationis",table row r394,0
same,"Abundance: Family Ruminococcaceae, Genus Other, Species Other",table row r395,0
same,"Abundance: Family S24-7, Genus —, Species —",table row r396,13
same,"Abundance: Family Ruminococcaceae, Genus Oscillospira, Species —",table row r397,26
same,"Abundance: Family Ruminococcaceae, Genus Oscillospira, Species —",table row r398,0
same,"Abundance: Family Ruminococcaceae, Genus Ruminococcus, Species —",table row r399,0
same,"Abundance: Family [Mogibacteriaceae], Genus —, Species —",table row r400,0
same,"Abundance: Family Erysipelotrichaceae, Genus Coprobacillus, Species —",table row r401,0
same,"Abundance: Family Erysipelotrichaceae, Genus Clostridium, Species cocleatum",table row r402,1
same,"Abundance: Family S24-7, Genus —, Species —",table row r403,0
same,"Abundance: Family Coriobacteriaceae, Genus —, Species —",table row r404,0
same,"Abundance: Family Coriobacteriaceae, Genus Adlercreutzia, Species —",table row r405,0
same,"Abundance: Family Enterococcaceae, Genus Vagococcus, Species —",table row r407,0
same,"Abundance: Family [Mogibacteriaceae], Genus —, Species —",table row r409,6
same,"Abundance: Family S24-7, Genus —, Species —",table row r413,11
same,"Abundance: Family Ruminococcaceae, Genus Oscillospira, Species —",table row r414,0
same,"Abundance: Family Planococcaceae, Genus Sporosarcina, Species —",table row r415,0
same,"Abundance: Family Erysipelotrichaceae, Genus Other, Species Other",table row r417,0
same,"Abundance: Family Ruminococcaceae, Genus Ruminococcus, Species —",table row r419,0
same,"Abundance: Family Coriobacteriaceae, Genus Adlercreutzia, Species —",table row r423,0
same,"Abundance: Family Other, Genus Other, Species Other",table row r424,0
same,"Abundance: Family Ruminococcaceae, Genus Other, Species Other",table row r425,0
